The subject of assay [1] is TNFα. Kind of assay: IRAK4 Monocyte TNFα Cell Based Assay. Further details: species or system human. The conditions noted are these: read-out: EC50 MONO TNF HTRF. The essentials:
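Human monocytes (5,000/well) pretreated with compound 1 h at 37 °C (0.1% DMSO final), then stimulated with 50 pg/ml LPS for 4 h. Secreted TNFα measured by TR-FRET two-antibody detection after overnight incubation at room temperature; % control relative to unstimulated and LPS-stimulated wells.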
(In general: TR-FRET usually uses a lanthanide donor and a delayed reading to cut background.)

The target of assay [2] is IRAK4 enzyme (Homo sapiens (Human), UniProt Q9NWZ3). In words: IRAK4 Biochemical Assay (TR-FRET, STK1 KinEASE). The protocol: IRAK4 enzyme (Carna Biosciences, Chuo-ku, Kobe, Japan) activity was measured by detecting phosphorylated peptide substrate formation using an antibody against the phosphorylated peptide substrate. This is a time-resolved fluorescence resonance energy transfer (TR-FRET) immunoassay, based on the STK1 KinEASE Assay (Cisbio, Bedford, Mass.). The assay was designed as a simple two-step, endpoint assay (a 5 μl enzyme reaction followed by 5 μl stop and detect Solution) performed in ProxiPlate-384 Plus plates (Perkin Elmer, Waltham, Mass.). […] Compounds diluted in DMSO were spotted into 384 well plates using a Labcyte® Echo 550 Liquid Handling System prior to addition of IRAK4 enzyme and peptide substrate. Reaction solutions were delivered using a Multi-Flo (Bio-Tek Instruments). The enzyme and peptide solution was incubated with compound for 15 minutes at room temp before the reaction was initiated by the addition of ATP. The standard 5 μl reaction mixture contained 500 μM ATP, […] peptide (STK1 Peptide), 0.75 nM of IRAK4 in reaction buffer (50 mM HEPES, pH 7.0, 0.02% NaN3, 0.01% BSA, 0.1 mM Orthovanadate, 5 mM […], 0.025% NP-40, 1 mM DTT). After 120 min of incubation at room temperature, 5 μl of Stop and Detect Solution (1:100 Cryptate labeled anti-phosphorylated peptide antibody solution and 125 nM Tracer in a 50 mM HEPES pH 7.0 detection buffer containing sufficient EDTA) was added. The plate was then further incubated for 60 minutes at room temperature and read on Envision 2103 Multilabeled reader (PerkinElmer) with excitation/emission/FRET emission at 340 nm/615 nm665 nm, respectively. Fluorescence intensities at 615 nm and 665 nm emission wavelengths were expressed as aratio (665 nm/615 nm). Percentage of inhibition was calculated as below: % Inhibition=100×(Ratiosample−Ratio0% Inhibition)/(Ratio100% Inhibition−Ratio0% Inhibition)
IRAK4 enzyme, sequence (Q9NWZ3 whole entry): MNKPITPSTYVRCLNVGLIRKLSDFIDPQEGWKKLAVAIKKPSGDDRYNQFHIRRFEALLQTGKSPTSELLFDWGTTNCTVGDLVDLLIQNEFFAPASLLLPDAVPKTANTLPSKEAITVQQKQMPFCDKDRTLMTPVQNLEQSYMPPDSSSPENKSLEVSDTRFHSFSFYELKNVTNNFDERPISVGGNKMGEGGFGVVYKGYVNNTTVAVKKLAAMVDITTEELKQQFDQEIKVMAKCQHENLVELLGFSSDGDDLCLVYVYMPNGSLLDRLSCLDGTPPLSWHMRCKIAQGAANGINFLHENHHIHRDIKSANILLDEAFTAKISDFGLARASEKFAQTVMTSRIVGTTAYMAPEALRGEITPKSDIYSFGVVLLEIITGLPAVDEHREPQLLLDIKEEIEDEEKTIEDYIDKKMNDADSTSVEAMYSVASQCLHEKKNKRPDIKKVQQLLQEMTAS
The 0% inhibition value comes from control wells lacking inhibitor.

Setting [3] is: Homo sapiens, Monocyte, human monocytes, second part of Table 2, compounds 33-343, unit inferred.

Read-outs that look alike come from different tables or passages of the source.

As a reminder, the EC50 is the concentration needed to bring the measured effect to its halfway point. As a reminder, the IC50 is the concentration that inhibits the measured activity by half.

On to `CC(C)Nc1cc(-c2ccc3cc(C#N)cnn23)ncc1-c1nnc(N2C[C@H]3C[C@@H]2CO3)s1` [Compound 237, 7-(5-(5-((1R,4R)-2-oxa-5-azabicyclo[2.2.1]heptan-5-yl)-1,3,4-thiadiazol-2-yl)-4-(isopropylamino)pyridin-2-yl)pyrrolo[1,2-b]pyridazine-3-carbonitrile], for which, in assay [1] (setting [3]), the EC50 is 8.4 nM. The compound also displayed an IC50 in assay [2] of 0.14 nM.

With `CC(C)Nc1cc(-c2ccc3cc(C#N)cnn23)ncc1-c1nnc(N2C[C@@H]3C[C@H]2CO3)s1` [Compound 238, 7-(5-(5-((1S,4S)-2-oxa-5-azabicyclo[2.2.1]heptan-5-yl)-1,3,4-thiadiazol-2-yl)-4-(isopropylamino)pyridin-2-yl)pyrrolo[1,2-b]pyridazine-3-carbonitrile], the EC50 in assay [1] (setting [3]) stood at 12.6 nM. For the same compound, in assay [2], half-maximal inhibition (IC50) was put at 0.46 nM.

For the compound `CC(=O)N[C@H]1CC[C@H](c2nnc(-c3cnc(-c4ccc5cc(C#N)cnn45)cc3N[C@H]3CC[C@@H](O)CC3)s2)CC1` [Compound 244, N-((1R,4r)-4-(5-(6-(3-cyanopyrrolo[1,2-b]pyridazin-7-yl)-4-(((1s,4S)-4-hydroxycyclohexyl)amino)pyridin-3-yl)-1,3,4-thiadiazol-2-yl)cyclohexyl)acetamide], in assay [1] (human monocytes, second part of Table 2, compounds 33-343, unit inferred), the EC50 was found to be 9.1 nM. The IC50 in assay [2] (second part of Table 2, compounds 33-343, unit inferred, read-out: IC50 IRAK4-HTBS) stood at 0.93 nM.

As to `CC(=O)NC12CC(c3nnc(-c4cnc(-c5ccc6cc(C#N)cnn56)cc4NC(C)C)s3)(C1)C2` [Compound 246, N-(3-(5-(6-(3-cyanopyrrolo[1,2-b]pyridazin-7-yl)-4-(isopropylamino)pyridin-3-yl)-1,3,4-thiadiazol-2-yl)bicyclo[1.1.1]pentan-1-yl)acetamide], the EC50 in assay [1] (setting [3]) was 43.3 nM. This compound also had an IC50 in assay [2] of 1.37 nM.

For `CC(=O)N[C@H]1CC[C@H](c2nnc(-c3cnc(-c4ccc5cc(C#N)cnn45)cc3NC(C)C)s2)C1` [Compound 247, N-((1S,3S)-3-(5-(6-(3-cyanopyrrolo[1,2-b]pyridazin-7-yl)-4-(isopropylamino)pyridin-3-yl)-1,3,4-thiadiazol-2-yl)cyclopentyl)acetamide], the EC50 in assay [1] (setting [3]) was found to be 25.1 nM. This compound came in with an IC50 in assay [2] of 0.8 nM.

Take `CC(=O)N[C@@H]1CC[C@H](c2nnc(-c3cnc(-c4ccc5cc(C#N)cnn45)cc3NC(C)C)s2)C1` [Compound 248, N-((1R,3S)-3-(5-(6-(3-cyanopyrrolo[1,2-b]pyridazin-7-yl)-4-(isopropylamino)pyridin-3-yl)-1,3,4-thiadiazol-2-yl)cyclopentyl)acetamide]: the EC50 in assay [1] (setting [3]) stood at 16.3 nM. In assay [2], this compound displayed an IC50 of 0.93 nM.

As for `CC(=O)NC1CCN(c2nnc(-c3cnc(-c4ccc5cc(C#N)cnn45)cc3NC(C)C)s2)[C@@H](C)C1` (stereo partly drawn) [Compound 249, N-((2S)-1-(5-(6-(3-cyanopyrrolo[1,2-b]pyridazin-7-yl)-4-(isopropylamino)pyridin-3-yl)-1,3,4-thiadiazol-2-yl)-2-methylpiperidin-4-yl)acetamide], the EC50 in assay [1] (setting [3]) was found to be 8.9 nM. Besides, the IC50 in assay [2] is 0.91 nM.

`CC(=O)N[C@@H]1CCN(c2nnc(-c3cnc(-c4ccc5cc(C#N)cnn45)cc3NC(C)C)s2)C[C@@H]1F` [Compound 250, N-((3S,4R)-1-(5-(6-(3-cyanopyrrolo[1,2-b]pyridazin-7-yl)-4-(isopropylamino)pyridin-3-yl)-1,3,4-thiadiazol-2-yl)-3-fluoropiperidin-4-yl)acetamide]: in assay [1] (setting [3]), the EC50 amounted to 8.3 nM. The IC50 in assay [2] was 1.17 nM.

Consider `CC(=O)NC1CCN(c2nnc(-c3cnc(-c4ccc5cc(C#N)cnn45)cc3NC(C)C)s2)CC1(F)F` (centres unmarked) [Compound 251, N-(1-(5-(6-(3-cyanopyrrolo[1,2-b]pyridazin-7-yl)-4-(isopropylamino)pyridin-3-yl)-1,3,4-thiadiazol-2-yl)-3,3-difluoropiperidin-4-yl)acetamide], for which, in assay [1] (setting [3]), the EC50 is 4.4 nM. Further, the IC50 in assay [2] is 0.48 nM.

Take `CC(C)Nc1cc(-c2ccc3cc(C#N)cnn23)ncc1-c1nnc(N2CC3(COC3)C2)s1` [Compound 252, 7-(5-(5-(2-oxa-6-azaspiro[3.3]heptan-6-yl)-1,3,4-thiadiazol-2-yl)-4-(isopropylamino)pyridin-2-yl)pyrrolo[1,2-b]pyridazine-3-carbonitrile]: the EC50 in assay [1] (setting [3]) turned out to be 7 nM. The compound also gave an IC50 in assay [2] of 0.29 nM.

Take `N#Cc1cnn2c(-c3cc(NC4CCOCC4)c(-c4nnc(N5CC6CCC(C5)O6)s4)cn3)ccc2c1` [Compound 256, 7-(5-(5-(8-oxa-3-azabicyclo[3.2.1]octan-3-yl)-1,3,4-thiadiazol-2-yl)-4-((tetrahydro-2H-pyran-4-yl)amino)pyridin-2-yl)pyrrolo[1,2-b]pyridazine-3-carbonitrile]: the EC50 in assay [1] (setting [3]) amounted to 4.6 nM. In assay [2], half-maximal inhibition (IC50) was put at 0.68 nM.

For the compound `CC(C)Nc1cc(-c2ccc3cc(C#N)cnn23)ncc1-c1nnc(N2CCS(=O)(=O)CC2)s1` [Compound 257, 7-(5-(5-(1,1-dioxidothiomorpholino)-1,3,4-thiadiazol-2-yl)-4-(isopropylamino)pyridin-2-yl)pyrrolo[1,2-b]pyridazine-3-carbonitrile], in assay [1] (setting [3]), the EC50 amounted to 10000 nM. Half-maximal inhibition in assay [2] (IC50) was put at 0.95 nM.

With `CC(=O)N1C2CCC1CN(c1nnc(-c3cnc(-c4ccc5cc(C#N)cnn45)cc3NC(C)C)s1)C2` [Compound 259, 7-(5-(5-(8-acetyl-3,8-diazabicyclo[3.2.1]octan-3-yl)-1,3,4-thiadiazol-2-yl)-4-(isopropylamino)pyridin-2-yl)pyrrolo[1,2-b]pyridazine-3-carbonitrile], the EC50 in assay [1] (Homo sapiens, Monocyte) amounted to 2.6 nM. The IC50 in assay [2] stood at 0.94 nM.

As for `CC(C)Nc1cc(-c2ccc3cc(C#N)cnn23)ncc1-c1nnc(N2CC3CCC(C2)N3C(=O)C2CC2)s1` [Compound 263, 7-(5-(5-(8-(cyclopropanecarbonyl)-3,8-diazabicyclo[3.2.1]octan-3-yl)-1,3,4-thiadiazol-2-yl)-4-(isopropylamino)pyridin-2-yl)pyrrolo[1,2-b]pyridazine-3-carbonitrile], the EC50 in assay [1] (Homo sapiens, Monocyte) was 5.1 nM. Moreover, half-maximal inhibition in assay [2] (IC50) was put at 1.08 nM.

On to `CC(=O)N1[C@@H]2COC[C@H]1CN(c1nnc(-c3cnc(-c4ccc5cc(C#N)cnn45)cc3NC(C)C)s1)C2` [Compound 265, 7-(5-(5-((1R,5S)-9-acetyl-3-oxa-7,9-diazabicyclo[3.3.1]nonan-7-yl)-1,3,4-thiadiazol-2-yl)-4-(isopropylamino)pyridin-2-yl)pyrrolo[1,2-b]pyridazine-3-carbonitrile], for which the EC50 in assay [1] (Homo sapiens, Monocyte) amounted to 11.3 nM. In addition, half-maximal inhibition in assay [2] (IC50) was put at 2.43 nM.

For `CC(=O)N1CCN(c2nnc(-c3cnc(-c4ccc5cc(C#N)cnn45)cc3NC(C)C)s2)C2CC21` (centres unmarked) [Compound 267, 7-(5-(5-(5-acetyl-2,5-diazabicyclo[4.1.0]heptan-2-yl)-1,3,4-thiadiazol-2-yl)-4-(isopropylamino)pyridin-2-yl)pyrrolo[1,2-b]pyridazine-3-carbonitrile], in assay [1] (setting [3]), the EC50 was 18.9 nM. For the same compound, half-maximal inhibition in assay [2] (IC50) was put at 0.65 nM.

As to `CC(=O)NC12CC(c3nnc(-c4cnc(-c5ccc6cc(C#N)cnn56)cc4NC4CCOCC4)s3)(C1)C2` [Compound 270, N-(3-(5-(6-(3-cyanopyrrolo[1,2-b]pyridazin-7-yl)-4-((tetrahydro-2H-pyran-4-yl)amino)pyridin-3-yl)-1,3,4-thiadiazol-2-yl)bicyclo[1.1.1]pentan-1-yl)acetamide], the EC50 in assay [1] (setting [3]) worked out at 10.7 nM. This compound had an IC50 in assay [2] of 0.65 nM.

For the compound `CC(C)Nc1cc(-c2ccc3cc(C#N)cnn23)ncc1-c1nnc(N2CC3CC(C2)N3C(=O)OC(C)(C)C)s1` [Compound 271, tert-butyl 3-(5-(6-(3-cyanopyrrolo[1,2-b]pyridazin-7-yl)-4-(isopropylamino)pyridin-3-yl)-1,3,4-thiadiazol-2-yl)-3,6-diazabicyclo[3.1.1]heptane-6-carboxylate], the concentration for a half-maximal effect (EC50) in assay [1] (Homo sapiens, Monocyte) stood at 89 nM. In assay [2], this compound had an IC50 of 3.22 nM.

Take `CC(C)Nc1cc(-c2ccc3cc(C#N)cnn23)ncc1-c1nnc(N2CC3CC(C2)N3C(=O)C(C)(C)O)s1` [Compound 273, 7-(5-(5-(6-(2-hydroxy-2-methylpropanoyl)-3,6-diazabicyclo[3.1.1]heptan-3-yl)-1,3,4-thiadiazol-2-yl)-4-(isopropylamino)pyridin-2-yl)pyrrolo[1,2-b]pyridazine-3-carbonitrile]: the EC50 in assay [1] (Homo sapiens, Monocyte) turned out to be 4.1 nM. Further, inhibition in assay [2] was half-maximal at 0.68 nM (IC50).

The values are drawn from patent US11046686B2, “Thiadiazole IRAK4 compounds” (Gilead Sciences, Inc., priority 2018, dated 2021).
